From patent US9358281B2, “Methods, agents and peptides for inducing an innate immune response in HIV vaccination” (New York University, priority 2009, dated 2016)
“Also recorded” adds a separate entry of the source. Like-named read-outs stand apart in the source and are kept apart here.

Assays:
Assay type in all cases: cell-based, human
[1] = test system: monocyte-derived dendritic cells (MDDC); conditions: for effect on MDDC activation (CD86 in GFP+) by HIVGFP(G)+SIVVLP(G): inhibitor added within the first 24 hours of infection
naive CD4+ T cells = experiment: Naive T cell proliferation assay (CFSE dilution) with infected DC and anti-CD3; conditions: 25 μM AZT or 1 μM SCY
Protocol: Naive T cell proliferation assay: 48 h after infection, naive T cells were labeled with CFSE (eBioscience) as described previously (Antons et al., 2008). DC were infected with dilutions of SIVVLP(G) and pLaiΔEnv-GFP3(G) WT (indicated as HIVGFP(G)) or G89V. AZT was added at the time of infection and SCY was added from 3 to 8 hours after infection. 48 hours after infection, half of the DC was processed for surface staining and cytometry. The other half was washed with media and resuspended in fresh media without cytokines. 20,000 T cells were mixed with DC at a DC to T ratio of 1:5 and 1:15. Cells were stimulated by dilutions of anti-CD3 (OKT3 hybridoma supernatant, approximately 1-100 ng/ml) in a total volume of 150 to 200 μl in round bottom 96-well plates. Cells were harvested and analyzed by flow cytometry at day 4 or day 5 postactivation.

STAT1 = experiment: Immunoblot of phospho-STAT1 over time in MDDC; conditions: after treatment or infection
Protocol: (§1) Western blot analysis: Cells were lysed in 1% NP-40, 50 mM Tris pH 8, 120 mM NaC, 4 mM EDTA, 50 mM NaF, 1 mM NA3VO4 and a protease inhibitors cocktail (Roche). Total lysates were resolved on SDS-PAGE, transferred to PVDF membranes and probed with primary antibodies and corresponding HRP-conjugated secondary antibodies.
as §1, with “NaCl,” for “NaC,”, “inhibitor” for “inhibitors”, “antibodies (GE Healthcare).” for “antibodies.”

| Molecule | effect on LPS- or poly(I:C)-induced CD86 up-regulation [1] | effect on MDDC activation (CD86 in GFP+) by HIVGFP(G)+SIVVLP(G) [1] | ability of treated, HIVGFP(G) and SIVVLP(G) infected DC to induce proliferation (naive CD4+ T cells) | effect on MDDC activation (CD86 in GFP+) by HIVGFP(G)+SIVVLP(G) ([1]; listed as Raltegravir) | time at which STAT1 phosphorylation was present (STAT1) |
| --- | --- | --- | --- | --- | --- |
| Cc1cn([C@H]2C[C@H](N=[N+]=[N-])[C@@H](CO)O2)c(=O)[nH]c1=O [AZT, Zidovudine] | had no effect | blocked activation; also recorded: inhibited transduction efficiency and MDDC activation | reduced ability to induce proliferation | – | – |
| Cc1nnc(C(=O)NC(C)(C)c2nc(C(=O)NCc3ccc(F)cc3)c(O)c(=O)n2C)o1 [RAL, Raltegravir] | had no effect | blocked activation | – | inhibited transduction efficiency and MDDC activation | – |
| lipopolysaccharide [LPS] | – | – | – | – | 2 h |
